Test results as given in PubChem BioAssay (NCI).
“And” between values parts separate entries of the source, which are not always exact repeats. Equal values may be shown once.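 Five concentrations, 48 hours, 96-well plates. The concentration for 50% growth inhibition is given as GI50. TGI marks complete inhibition of growth.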 Where a SMILES comes first, the peptide text is derived from it. [ ]: non-standard residue; d: D form. The star is where a group is joined. ξ: configuration not given here. dIva = CC[C@@](C)(N)C(=O)O; Aib = CC(C)(N)C(=O)O; ξP = O=C(O)C1CCCN1; βAla = NCCC(=O)O; X5 = OCN*

What was measured:
Test in all cases: NCI anticancer screen, dose series, 48 h
[1] = test system: BT-549 breast
[2] = test system: HS 578T breast
[3] = test system: MCF7 breast
[4] = test system: MDA-MB-435
[5] = test system: NCI/ADR-RES ovarian
[6] = test system: PC-3 prostate
[7] = test system: T-47D breast

Row | Structure (SMILES) | TGI [1] [µM] | TGI [2] [µM] | TGI [3] [µM] | TGI [4] [µM] | TGI [5] [µM] | TGI [6] [µM] | GI50 [1] | GI50 [2] [µM] | GI50 [3] [nM] | GI50 [4] [µM] | GI50 [5] [µM] | GI50 [6] [µM] | GI50 [7] [µM] | TGI [7] [µM]
1 | O=C(O)CSc1nnc2c3ccccc3c3ccccc3c2n1 | > 100 | > 100 | > 100 | > 100 | > 100 | > 100 |  |  |  |  |  |  |  | 
2 | CCCCCCCCCCCCCCCC(N)c1ccccc1 (stereo not given) | 3.11 | 4.64 | 3.18 | 3.04 | 3.66 | 3.26 | 1.63 µM | 2.02 | 1620 | 1.61 | 1.85 | 1.67 | 1.56 | 3.08
3 | COc1cc2c3c(n(CCCN4CCN(CCO)CC4)c(=O)c2cc1OC)-c1cc2c(cc1C3=O)OCO2 | 12.3 | > 100 | 17.5 | > 100 | > 100 | 35.4 | 2.35 µM | > 100 | 873 | > 100 | 18.2 | 13.2 | > 100 | > 100
4 | NCCNc1ncnc2ccc(Cl)cc12 | > 100 | > 100 | > 100 | > 100 | > 100 | > 100 |  |  |  |  |  |  |  | > 100
5 | Nc1ncnc2c1ncn2C1OC(C(=O)OCCO)C(O)C1O (stereo not given) | > 100 | > 100 | > 100 | > 100 | > 100 | > 100 |  |  |  |  |  |  |  | > 100
6 | COC(=O)C1=C(O)C(C(=O)OC)[C@@]2(O)[C@@H](C(=O)OC)C(c3ccccc3Cl)C[C@@H]1[C@@H]2C(=O)OC (stereo not given in full) | 33.8 | 43.7 | > 100 | 8.82 | 15.9 | 36.5 | 7.65 µM | 10.1 | 5240 | 3.09 | 3.16 | 5.88 | 11.6 | 40.3
7 | CC1SC(c2cccc(Cl)c2)N(NC(=O)C(O)c2ccccc2)C1=O (stereo not given) | > 100 | > 100 | > 100 | > 100 |  | > 100 | > 100 µM | > 100 | > 100000 | > 100 |  | > 100 | > 100 | > 100
8 | CC1CC2(C)CC(=O)C1C1C(=O)N(CCN3CCOCC3)C(=O)C12 (stereo not given) | > 100 | > 100 |  | > 100 | > 100 | > 100 | > 100 µM | > 100 |  | > 100 | > 100 | > 100 | > 100 | > 100
9 | CC[C@@](C)(NC(=O)[C@H](C)NC(=O)CCNC(=O)C(C)(C)NC(=O)[C@H](C)NC(=O)[C@@H]1CCCN1C(=O)[C@@](C)(CC)NC(=O)[C@H](Cc1ccccc1)NC(=O)C1CCCN1C(=O)C(C)(C)NC(=O)C1CCCN1C(=O)C(C)(C)NC(C)=O)C(=O)NCCC(=O)N[C@@H](CC(C)C)C(=O)NC(C)(C)C(=O)NCCC(=O)N[C@@H](CC(C)C)C(=O)NC(C)(C)C(=O)NC(C)(C)C(=O)N[C@@H](CC(C)C)C(=O)NCCC(=O)NCO (stereo not given in full) (Ac-[Aib][ξP][Aib][ξP]F[dIva]PA[Aib][βAla]A[dIva][βAla]L[Aib][βAla]L[Aib][Aib]L[βAla]-X5) | 0.266 | 0.642 | 0.286 | 0.357 | 0.488 | 0.264 | 0.0699 µM | 0.248 | 65.1 | 0.142 | 0.238 | 0.0765 | 0.0739 | 0.302
10 | O=C(Nc1ccc(N2CCNCC2)cn1)c1[nH]ncc1Nc1ncnc2sc3c(c12)CCC3 | 38.6 | 14.6 | 4.2 | 2.67 | > 100 |  | 14.1 µM | 3.38 | 1680 | 1.13 | 4.75 |  | 1.65 | 4.27
11 | CN1C(=O)C(C)(C)Oc2c(-c3cn(C)c(=O)c4[nH]ccc34)cc(S(C)(=O)=O)cc21 | 14.7 | 6.71 | > 100 | > 100 | > 100 | > 100 | 1.09 µM | 0.425 | 338 | 0.637 | 14.3 | 2.01 | 0.808 | > 100
12 | Nc1cc(N)c2nc(-c3ccccc3)c(Oc3ccc(Cl)c(Cl)c3)nc2c1 |  | 33.7 | 70.6 | 21.1 | 36.1 | > 100 |  | 10.6 | 14200 | 5.03 | 11.8 | 15.5 | 24.5 | 79.1
13 | C[C@H](c1ccc(Cl)cc1[N+](=O)[O-])N1C(=O)c2cc(I)ccc2NC(=O)[C@H]1c1ccc(Cl)cc1 | > 100 | > 100 | > 100 | > 100 | > 100 | > 100 | > 100 µM | 6.5 | 6530 | > 100 | > 100 | 4.86 | 5.37 | > 100
14 | CC(=O)N1c2ccc(-c3ccc(C(=O)O)cc3)cc2[C@H](Nc2ccc(Cl)cc2)C[C@@H]1C | 29.6 | > 57.9 | > 100 | > 56 | > 100 | 28.7 | 1.27 µM | 0.0549 | 27.3 | 0.233 | 0.551 | 1.24 | 0.108 | 31
15 | COc1cc[nH]c1/C=C1\C(=O)Nc2ccc([N+](=O)[O-])c(N3CC[C@@H](O)C3)c21 | 1.59 | 6.33 | 2.85 | 0.907 | 5.83 | 2.15 | 0.328 µM | 0.353 | 121 | 0.271 | 0.53 | 0.235 | 0.541 | 3.8
16 | CCC(=O)Oc1ccc(/C=N/NC(N)=S)nc1 | > 100 | > 100 | > 100 | > 100 | > 100 | > 100 | 11.9 µM | 30.9 | 1880 | 7.86 | 3.27 | 6.83 | 5.83 | > 100
17 | O=[N+]([O-])c1ccc2nc(=S)[nH]n2c1 | > 100 | > 100 | > 100 | > 100 | > 100 |  |  |  |  |  |  |  |  | > 100
18 | O=S1(=O)C=C(c2ccccc2)C(c2ccccc2)=C1 |  | 3.5 |  | 3.33 | 9.31 | 4.52 |  | 1.18 |  | 1.41 | 2.73 | 1.79 |  | 
19 | CC(C)CC1NC(=O)C(C(C)C)NC(=O)CC(C)COC(=O)C(CC(C)C)N(C)C(=O)C(C(C)C)NC(=O)C(C(C)C)OC1=O (stereo not given) | > 50 | > 50 | > 50 | > 50 | > 50 | > 50 |  |  |  |  |  |  |  | > 50

Row | Structure (SMILES) | TGI [1] [µM] | TGI [2] [µM] | TGI [3] [µM] | TGI [4] [µM] | TGI [5] [µM] | TGI [6] [µM] | GI50 [1] | GI50 [2] [µM] | GI50 [3] [nM] | GI50 [4] [µM] | GI50 [5] [µM] | GI50 [6] [µM] | GI50 [7] [µM] | TGI [7] [µM]
20 | COc1ccc(-c2cc(=O)c3cccnc3[nH]2)cc1 | > 100 | > 100 | > 100 | 91.6 | > 100 | > 100 |  |  |  | 20 |  | 31.7 |  | > 100
21 | O=C1C=C(OCC=C(Cl)Cl)C(=O)c2ccccc21 | > 30.3 | 8.47 | 3.81 | 3.04 | > 51.7 | > 100 | 4.94 µM | 2.7 | 1610 | 1.65 | 3.94 | 5.14 | 2.4 | > 29.6
22 | CN(C)c1ccc(/C=N/NC(=O)c2cnc3ccccc3c2)cc1 | > 100 | 63.5 | > 100 | 34.5 | > 100 | > 100 |  |  |  |  |  |  |  | 
23 | CC1(C)N=C(N)N=C(N)N1c1ccc(CCC(=O)Nc2cccc(S(=O)(=O)F)c2)cc1 | > 100 | > 100 | > 100 | > 100 | > 100 | > 100 | 7.21 µM | > 100 | 6480 | 4.9 | > 100 | 0.597 | 68.7 | > 100
24 | COc1ccc2c(c1)NC(=O)CN2c1nc(C)nc2ccccc12 |  | > 100 | > 100 | 0.000484 |  | > 100 | 0.0021 µM | 0.000601 | 0.363 | 0.000208 |  | 0.000636 | 5.89 | > 100
25 | CC(=O)Nc1cc(CN2CCCCC2)c(O)c2ncccc12 | > 100 | > 100 | > 100 | > 100 | > 100 | 81 |  |  |  |  |  |  |  | > 100
26 | O=C(N/N=C/c1cccc(O)c1)c1ccc(C(F)(F)F)nc1Nc1cccc(C(F)(F)F)c1 | 3.41 | 5.86 | 4.08 | 4.23 | 5.93 | 7.67 | 0.76 µM | 1.86 | 1370 | 1.65 | 2.04 | 1.66 | 1.54 | 7.08
27 | N#CC(CC(=O)O)=C(c1ccccc1)c1ccccc1 | > 100 | > 100 | > 100 | > 100 | > 100 | > 100 |  |  |  |  |  |  |  | 
28 | C[C@H](CCCOS(C)(=O)=O)[C@H]1CC[C@H]2[C@@H]3CC[C@@H]4C[C@H](OS(C)(=O)=O)CC[C@]4(C)[C@H]3CC[C@]12C |  |  | 692 |  |  |  |  | 423 | 323000 | 1140 | 10.5 | 852 | 1040 | > 2500
29 | NC(N)=NC(N)=NCc1ccco1 | > 1250 | > 1250 | > 1250 | > 1250 | > 1250 |  | 336 µM and 974 µM | > 1250 | 600000 | > 1250 | > 1250 |  | > 1250 | > 1250
30 | NC(N)=N/N=C/c1ccc(Br)cc1 | 16.7 | 10.2 | 11.7 | 3.81 | 10.6 | 24 | 5.64 µM | 3.33 | 2280 | 1.07 | 3.15 | 4.57 | 5.57 | 23.7
31 | COC(=O)CCc1c(/C=C2\N=C(c3ccc[nH]3)C=C2OC)[nH]c(C)c1C(=O)OCc1ccccc1 | 2.57 | 3.78 | 4.78 | 2.25 | 3.78 | > 37.6 | 0.335 µM | 0.491 | 313 | 0.409 | 0.437 | 0.228 | 0.235 | 1.45
32 | COn1cc(C(=O)N=C(SC)SC)c2ccccc21 | 63.3 | 54.3 | > 100 | 39.7 | 42.5 | > 100 | 19.2 µM | 16.7 | > 100000 | 14 | 18.2 | 25.1 | 75.1 | > 100
33 | CSc1nc(-c2cccc(NC(=O)CCl)c2)c(C#N)c(=O)n1C | 3.02 | 7.45 | 2.39 | 5.98 |  | 8.12 | 1.51 µM | 2.33 | 240 | 2.06 |  | 2.4 | 1.71 | 4.19
34 | Nc1nc(Cl)c2ncn(Cc3ccc(-c4ccc(CCl)cc4)cc3)c2n1 | 37.8 | > 100 | 71.7 | 36.3 | 34.3 | > 100 | 7.13 µM | 43.4 | 7310 | 14.6 | 10.4 | 9.08 |  | 
35 | NC(=S)N=Nc1c(O)[nH]c2ccccc12 | 258 | 691 | 611 | > 1000 |  | 392 | 131 µM | 195 | 168000 | 925 |  | 172 | 184 | 617
36 | CCCNC(=O)Nc1ccc2c(c1)Cc1cc(N(CCCl)CCCl)ccc1-2 | 85 | 61.4 | 77.5 | 68.9 | > 100 | > 100 |  |  |  |  |  |  |  | 
37 | COc1ccc2c(c1)O/C(=C\c1ccc([N+](=O)[O-])s1)C2=O |  | > 25.2 | > 100 | > 100 | > 100 | > 100 |  | 2.61 | 621 | > 100 | 4.52 | 1.81 |  | 
